Assay results as given in ChEMBL document CHEMBL1143795, “Synthesis and antimalarial activity of new 1,12-bis(N,N'-acetamidinyl)dodecane derivatives” (Bioorg Med Chem Lett, 2007).

Assays:
[1] = system: Plasmodium vinckei petteri; test: Antimalarial activity against Plasmodium vinckei petteri 279BY infected intraperitoneal dosed Swiss mice (Mus musculus); type: functional; settings: ip
[2] = system: Plasmodium vinckei petteri; test: Antimalarial activity against Plasmodium vinckei petteri 279BY infected peroral dosed Swiss mice (Mus musculus); type: functional; settings: po
Plasmodium falciparum [3] = test: Antimalarial activity against Plasmodium falciparum Nigerian; type: functional, organism-based
Plasmodium falciparum [4] = test: microbe, parasite or virus in culture; settings: FCM29
Description: Antimalarial activity against Plasmodium falciparum FCM29

Plasmodium falciparum [5] = test: microbe, parasite or virus in culture; settings: W2
Description: Antimalarial activity against Plasmodium falciparum W2

Structure (SMILES)	IC50 (Plasmodium falciparum [3])	IC50 (Plasmodium falciparum [4])	IC50 (Plasmodium falciparum [5])	ED50 [1]	ED50 [2]
C/C(=N\OS(C)(=O)=O)NCCCCCCCCCCCCN/C(C)=N/OS(C)(=O)=O	12 nM	–	–	4.7 mg/kg	42 mg/kg
C/C(=N\OC(=O)Nc1ccccc1)NCCCCCCCCCCCCN/C(C)=N/OC(=O)Nc1ccccc1	135 nM	–	–	10 mg/kg	> 90 mg/kg
CC(=N)NCCCCCCCCCCCCNC(C)=N	–	4 nM	8.1 nM	3.1 mg/kg	> 200 mg/kg
C/C(=N\O)NCCCCCCCCCCCCN/C(C)=N/O	310 nM	–	–	9.2 mg/kg	90 mg/kg
CO/N=C(\C)NCCCCCCCCCCCCN/C(C)=N/OC	4350 nM	–	–	> 10 mg/kg	110 mg/kg

More lines, in order of falling IC50 (Plasmodium falciparum [3]), values ahead:

IC50 (Plasmodium falciparum [3])	IC50 (Plasmodium falciparum [4])	IC50 (Plasmodium falciparum [5])	Structure (SMILES)	ED50 [1]	ED50 [2]
7100 nM	–	–	Cc1noc(=O)n1CCCCCCCCCCCCn1c(C)noc1=O	> 9 mg/kg	62 mg/kg
1800 nM	–	–	CC(=O)O/N=C(\C)NCCCCCCCCCCCCN/C(C)=N/OC(C)=O	7.1 mg/kg	> 90 mg/kg
93 nM	–	–	CCNC(=O)O/N=C(\C)NCCCCCCCCCCCCN/C(C)=N/OC(=O)NCC	> 10 mg/kg	> 90 mg/kg
68.7 nM	–	–	C/C(=N\OC(=O)c1ccccc1)NCCCCCCCCCCCCN/C(C)=N/OC(=O)c1ccccc1	> 9 mg/kg	> 90 mg/kg
9.6 nM	–	–	CCOP(=O)(OCC)O/N=C(\C)NCCCCCCCCCCCCN/C(C)=N/OP(=O)(OCC)OCC	> 9 mg/kg	> 90 mg/kg
